Publication PMC10363480 (Plant Communications, 2023)
Entries after “also recorded” stand apart in the source; their conditions may differ.

System: mitochondria or chloroplast of Chlamydomonas reinhardtii
Assay: Subcellular localization of Venus reporter by epifluorescence microscopy (manual targeting assignment)
Format: cell-based
Conditions: 15 N-terminal residues of RCA1-cTP added, no C-terminal element; Figure 2
Description: In a bid to keep peptidase recognition sites intact, C-terminal elements were designed to start 10 residues upstream of the cleavage site, even though this slightly truncates TP helices. Peptides carrying the 15-amino-acid cTP N-terminus (cTP-N) will be denoted ^cP. Similarly, peptides with C-terminal elements from RCA1-cTP (cTP-C) or CAG2-mTP (mTP-C) will be denoted P^c or P^m, respectively. Peptide variants are used to drive the subcellular localization of a Venus fluorescent reporter protein, which was assessed using fluorescence microscopy; in Figure 2, an executive overview of observed Venus localization is presented for all constructs. […] Here, we use automated image segmentation to validate our subcellular localization assessment (Supplemental Figure 2, Supplemental text). […] The reader will be asked to return to Figure 2 throughout, with Figures 3 and 4 providing selected micrographs as examples highlighting particular points of interest.
Chlamydomonas TP sequences were amplified from genomic DNA extracted from strain T222+ (CC-5101). Templates for codon-optimized HA-RAMP, RP, and R→K modified TP sequences were obtained by gene synthesis (Eurofins Genomics). Correct assembly was verified by sequencing (Eurofins Genomics). Linear transformation cassettes were generated through restriction digestion with EcoRV (New England Biolabs).
Constructs were transformed into wild-type strain T222+ (CC-5101) using a protocol described previously ([Onishi and Pringle, 2016]), except using 4 μl of DNA at 2 μg/μl.
Strains with suspected mitochondrial targeting were treated with 0.1 μM MitoTracker Red CMXRos (Thermo Fisher Scientific) in growth medium for 30 min in the dark and washed with TAP prior to taking images.
Legend for Fig. S3 – S20. Three independent transformant lines (Strains 1-3) are shown for each combination of modifications (A-L), represented by a cartoon and a shorthand description (cf. Fig.
2). Where a construct was interpreted as generating reporter localization in mitochondria or […]
Epifluorescence microscopy images of typical cells for each strain are shown. MitoTracker fluorescence, false-coloured in cyan, indicates the position of mitochondria (although parts of the cell exterior are sometimes also stained). False-coloured yellow fluorescence from the Venus channel reports on the subcellular localization of the fluorescent reporter. Chlorophyll autofluorescence, shown in magenta, indicates the location of the chloroplast. Scale bars are 5µm. Brightness (Br.) was adjusted for clarity: fluorescence intensity values were restricted to the range shown for each channel by matching coloured rectangles. Intensity scales to 0 at the bottom of the panel, and to 65535 at the top.
On the right-hand side, quantitative information associated with each construct is shown. Data was normalized such that averages range from 0 to 1 across all constructs (cf. Fig S2). Individual cell measurements may exceed this range; for clarity, the range shown here is limited to -0.5 to 1.5, with outliers that have more extreme values shown as lying beyond a dashed line. Strain 1 is plotted as circles, strain 2 as squares, and strain 3 as diamonds. Venus: Fluorescence plate reader data of transformants screened for this construct (Venus fluorescence, accounting for cell density using linear regression of OD750 and chlorophyll fluorescence trained on ‘no venus’ control transformants). Transformants that were not selected after screening are shown as small grey circles. A colour code ranging from white (low Venus fluorescence) to black (high Venus fluorescence) is used for strains 1-3 and the average thereof. Automated image quantification data: pyr/chl: Venus channel signal in the pyrenoid relative to in the chlorophyll region; mt/cell: Venus channel signal in mitochondria relative to the whole cell. Each point corresponds to a single cell.
The colour code code is the same as that below distributions in Fig. S2, i.e. blue highlights the […]

Row | Sequence | chloroplast targeting upon sole addition of cTP-N (^cP) | mitochondrial targeting upon sole addition of cTP-N (^cP)
1 | GKIPVKAIKKAGAAIGKGLRAINIASTAHDVYSFFKPKHKKK [SIM, SI moricin, HA-RAMP antimicrobial peptide, reference compound] | at least partial chloroplast targeting; also recorded: generated chloroplast targeting | –
2 | GWIRDFGKRIERVGQHTRDATIQTIAVAQQAANVAATLKG [S1D, sarcotoxin-1D, HA-RAMP antimicrobial peptide, reference compound] | – | enabled mitochondrial targeting

Same assay, conditions: C-terminal element of RCA1-cTP added to the named peptide; Figure 2 rows E and F; bare name = K and R versions

Row | Sequence | chloroplast targeting upon addition of cTP-C (P^c)
3 | GWIRDFGKRIERVGQHTRDATIQTIAVAQQAANVAATLKG [S1D, sarcotoxin-1D, HA-RAMP antimicrobial peptide, reference compound] | enabled chloroplast targeting
4 | KYYGNGVHCTKSGCSVNWGEAFSAGVHRLANGGNGFW [LCA, leucocin A, HA-RAMP antimicrobial peptide, reference compound] | enabled chloroplast targeting
5 | KYYGNGVSCNKKGCSVDWGKAIGIIGNNAAANLTTGGKAGWKG [EHF, enterocin HF, HA-RAMP antimicrobial peptide, reference compound] | enabled chloroplast targeting

Same assay, conditions: C-terminal element of RCA1-cTP added to the named peptide; Figure 2 rows E and F; bare name = K and R versions; listed as LCAK

Row | Sequence | chloroplast targeting upon addition of cTP-C (P^c)
6 | KYYGNGVHCTKSGCSVNWGEAFSAGVHRLANGGNGFW [LCA, leucocin A, HA-RAMP antimicrobial peptide, reference compound] | Gain of partial chloroplast targeting

Same assay, conditions: Figure 2; bare name = K and R versions

Row | Sequence | targeting when combining cTP-N with mTP-C (^cP^m)
7 | GKIPVKAIKKAGAAIGKGLRAINIASTAHDVYSFFKPKHKKK [SIM, SI moricin, HA-RAMP antimicrobial peptide, reference compound] | chloroplast targeting
8 | GLFSKFNKKKIKSGLIKIIKTAGKEAGLEALRTGIDVIGCKIKGEC [E1S, esculentin-1SEA, HA-RAMP antimicrobial peptide, reference compound] | chloroplast targeting
9 | GWIRDFGKRIERVGQHTRDATIQTIAVAQQAANVAATLKG [S1D, sarcotoxin-1D, HA-RAMP antimicrobial peptide, reference compound] | dual targeting
10 | KYYGNGVHCTKSGCSVNWGEAFSAGVHRLANGGNGFW [LCA, leucocin A, HA-RAMP antimicrobial peptide, reference compound] | chloroplast targeting
11 | KYYGNGVSCNKKGCSVDWGKAIGIIGNNAAANLTTGGKAGWKG [EHF, enterocin HF, HA-RAMP antimicrobial peptide, reference compound] | chloroplast targeting

Same assay, conditions: manual targeting assignment of the Venus reporter construct in Chlamydomonas: Neither / Mitochondria / Chloroplast / Dual, (partial) = partial targeting

Row | Sequence | Localisation
12 | MALWRTMLRRLGTMALHAGRAAFGAAADTISQ [DDM.R] | Neither
13 | MALWRTMLRRLGTMALHAGRAAFGAAADTISQLTQTAESFRGVSSQFFDAPNGPSVKQVLIEDEW [DDM.R.m] | Neither
14 | MALWRTMLRRLGTMALHAGRAAFGAAADTISQSVRRAQLQVVASSRKQMGRWRSIDAGVDASDDQ [DDM.R.c] | Neither
15 | MDEVNNDNCRIRFRGDISSESDRMNINY [RP2.R] | Neither
16 | MDEVNNDNCRIRFRGDISSESDRMNINYLTQTAESFRGVSSQFFDAPNGPSVKQVLIEDEW [RP2.R.m] | Neither
17 | MDEVNNDNCRIRFRGDISSESDRMNINYSVRRAQLQVVASSRKQMGRWRSIDAGVDASDDQ [RP2.R.c] | Neither
18 | MGGAKVATK [CH.K] | Neither
19 | MGGAKVATKLTQTAESFRGVSSQFFDAPNGPSVKQVLIEDEW [CH.K.m] | Neither
20 | MGGAKVATKSVKKAQLQVVASSKKQMGKWKSIDAGVDASDDQ [CH.K.c] | Neither
21 | MGGARVATR [CH.R] | Neither
22 | MGGARVATRLTQTAESFRGVSSQFFDAPNGPSVKQVLIEDEW [CH.R.m] | Neither
23 | MGGARVATRSVRRAQLQVVASSRKQMGRWRSIDAGVDASDDQ [CH.R.c] | Chloroplast

Same assay, conditions: peptide-Venus reporter construct expressed in Chlamydomonas reinhardtii; manual targeting assignment (Neither / Mitochondria / Chloroplast / Dual; partial = partial targeting)

Row | Sequence | Localisation
24 | MALWMTLLKKVLKAAAKAALNAVLVGANA [DS4.K] | Neither
25 | MALWMTLLKKVLKAAAKAALNAVLVGANALTQTAESFRGVSSQFFDAPNGPSVKQVLIEDEW [DS4.K.m] | Neither
26 | MALWMTLLKKVLKAAAKAALNAVLVGANASVRRAQLQVVASSRKQMGRWRSIDAGVDASDDQ [DS4.K.c] | Neither
27 | MALWMTLLRRVLRAAARAALNAVLVGANA [DS4.R] | Neither
28 | MALWMTLLRRVLRAAARAALNAVLVGANASVRRAQLQVVASSRKQMGRWRSIDAGVDASDDQ [DS4.R.c] | Neither
29 | MFLPLLAGLAANFLPKIFCKITRKC [B1E.K] | Neither
30 | MFLPLLAGLAANFLPKIFCKITRKCLTQTAESFRGVSSQFFDAPNGPSVKQVLIEDEW [B1E.K.m] | Neither
31 | MFLPLLAGLAANFLPKIFCKITRKCSVRRAQLQVVASSRKQMGRWRSIDAGVDASDDQ [B1E.K.c] | Neither
32 | MFLPLLAGLAANFLPRIFCRITRRC [B1E.R] | Neither
33 | MFLPLLAGLAANFLPRIFCRITRRCLTQTAESFRGVSSQFFDAPNGPSVKQVLIEDEW [B1E.R.m] | Neither
34 | MFLPLLAGLAANFLPRIFCRITRRCSVRRAQLQVVASSRKQMGRWRSIDAGVDASDDQ [B1E.R.c] | Neither
35 | MGIGKFLHSAKKFGKAFVGEIMNS [MII.K] | Mitochondria (partial)
36 | MGIGKFLHSAKKFGKAFVGEIMNSLTQTAESFRGVSSQFFDAPNGPSVKQVLIEDEW [MII.K.m] | Mitochondria (partial)
37 | MGIGKFLHSAKKFGKAFVGEIMNSSVRRAQLQVVASSRKQMGRWRSIDAGVDASDDQ [MII.K.c] | Mitochondria
38 | MGIGRFLHSARRFGRAFVGEIMNS [MII.R] | Mitochondria
39 | MGIGRFLHSARRFGRAFVGEIMNSLTQTAESFRGVSSQFFDAPNGPSVKQVLIEDEW [MII.R.m] | Mitochondria (partial)
40 | MGIGRFLHSARRFGRAFVGEIMNSSVRRAQLQVVASSRKQMGRWRSIDAGVDASDDQ [MII.R.c] | Mitochondria
41 | MGLFSKFNKKKIKSGLIKIIKTAGKEAGLEALRTGIDVIGCKIKGEC [E1S.K] | Neither
42 | MGLFSKFNKKKIKSGLIKIIKTAGKEAGLEALRTGIDVIGCKIKGECLTQTAESFRGVSSQFFDAPNGPSVKQVLIEDEW [E1S.K.m] | Neither
43 | MGLFSKFNKKKIKSGLIKIIKTAGKEAGLEALRTGIDVIGCKIKGECSVRRAQLQVVASSRKQMGRWRSIDAGVDASDDQ [E1S.K.c] | Neither
44 | MGLFSRFNRRRIRSGLIRIIRTAGREAGLEALRTGIDVIGCRIRGEC [E1S.R] | Neither
45 | MGLFSRFNRRRIRSGLIRIIRTAGREAGLEALRTGIDVIGCRIRGECLTQTAESFRGVSSQFFDAPNGPSVKQVLIEDEW [E1S.R.m] | Mitochondria (partial)
46 | MGLFSRFNRRRIRSGLIRIIRTAGREAGLEALRTGIDVIGCRIRGECSVRRAQLQVVASSRKQMGRWRSIDAGVDASDDQ [E1S.R.c] | Neither

Same assay, conditions: targeting of the Venus reporter fused to the peptide, expressed in Chlamydomonas reinhardtii; manual assignment from epifluorescence microscopy; full or partial

Row | Sequence | Localisation
47 | MALWKTMLKKLGTMALHAGKAAFGAAADTISQ [DDM.K] | Neither
48 | MALWKTMLKKLGTMALHAGKAAFGAAADTISQLTQTAESFRGVSSQFFDAPNGPSVKQVLIEDEW [DDM.K.m] | Neither
49 | MALWKTMLKKLGTMALHAGKAAFGAAADTISQSVRRAQLQVVASSRKQMGRWRSIDAGVDASDDQ [DDM.K.c] | Neither
50 | MALWMTLLRRVLRAAARAALNAVLVGANALTQTAESFRGVSSQFFDAPNGPSVKQVLIEDEW [DS4.R.m] | Neither
51 | MDEVNNDNCRIKFKGDISSESDKMNINY [RP2.K] | Neither
52 | MDEVNNDNCRIKFKGDISSESDKMNINYLTQTAESFRGVSSQFFDAPNGPSVKQVLIEDEW [RP2.K.m] | Neither
53 | MDEVNNDNCRIKFKGDISSESDKMNINYSVRRAQLQVVASSRKQMGRWRSIDAGVDASDDQ [RP2.K.c] | Neither
54 | MGKIPVKAIKKAGAAIGKGLRAINIASTAHDVYSFFKPKHKKK [SIM.K] | Neither
55 | MGKIPVKAIKKAGAAIGKGLRAINIASTAHDVYSFFKPKHKKKLTQTAESFRGVSSQFFDAPNGPSVKQVLIEDEW [SIM.K.m] | Neither
56 | MGKIPVKAIKKAGAAIGKGLRAINIASTAHDVYSFFKPKHKKKSVRRAQLQVVASSRKQMGRWRSIDAGVDASDDQ [SIM.K.c] | Neither
57 | MGLLLDTLKGAAKDIAGIALEKLKCKITGCKP [R2G.K] | Neither
